Measured values: patent US20090023718A1 (Aton Pharma, Inc., priority 2003, published 2009)
Read-outs that look alike come from different tables or passages of the source.

Tests used:
[1] = tested on: murine erythroleukemia cell line SC9; assay: MTS assay (Cell Titer 96 Aqueous One Solution Cell Proliferation Assay); assay type: cell-based; details: Mus musculus; SC9 cells, 48 hours incubation with increasing concentrations, inhibition of proliferation; mean ± spread (N)
Experimental: The novel compounds of the present invention were tested for their ability to inhibit proliferation of the murine erythroleukemia cell line SC9.
The MTS assay, also referred to as the Cell Titer 96 Aqueous One Solution Cell Proliferation Assay, is a colorimetric method for determining the number of viable cells in proliferation, cytotoxicity or chemosensitivity assays. The MTS reagent contains a novel tetrazolium compound [3-(4,5-dimethylthiazol-2-yl)-5-(3-carboxymethoxyphenyl)-2-(4-sulfophenyl)-2H-tetrazolium, inner salt] and electron coupling reagent (phenazine ethosulfate; PES). Murine erythroleukemia cells (SC-9) were incubated with vehicle or increasing concentrations of compound for 48 hours. Cell proliferation was quantitated by adding a small amount of the MTS reagent directly to culture wells, incubating for 1-4 hours and then recording the absorbance at 490 nm with a 96-well plate reader. The quantity of formazan product, as measured by […] absorbance, is directly proportional to the number of living cells in culture.

[2] = molecular target: T1, histone deacetylase, subtype 1 (HDAC1) (Homo sapiens, UniProt Q13547); assay: HDAC1-Flag assay (in vitro fluorescent deacetylation assay); assay type: biochemical; details: epitope-tagged human HDAC1 complex, substrate at Km, mean ± spread (N), read-out: HDAC Inhibition (IC50) nm
T1 construct: Flag; made in house
T1 sequence (Q13547 whole entry): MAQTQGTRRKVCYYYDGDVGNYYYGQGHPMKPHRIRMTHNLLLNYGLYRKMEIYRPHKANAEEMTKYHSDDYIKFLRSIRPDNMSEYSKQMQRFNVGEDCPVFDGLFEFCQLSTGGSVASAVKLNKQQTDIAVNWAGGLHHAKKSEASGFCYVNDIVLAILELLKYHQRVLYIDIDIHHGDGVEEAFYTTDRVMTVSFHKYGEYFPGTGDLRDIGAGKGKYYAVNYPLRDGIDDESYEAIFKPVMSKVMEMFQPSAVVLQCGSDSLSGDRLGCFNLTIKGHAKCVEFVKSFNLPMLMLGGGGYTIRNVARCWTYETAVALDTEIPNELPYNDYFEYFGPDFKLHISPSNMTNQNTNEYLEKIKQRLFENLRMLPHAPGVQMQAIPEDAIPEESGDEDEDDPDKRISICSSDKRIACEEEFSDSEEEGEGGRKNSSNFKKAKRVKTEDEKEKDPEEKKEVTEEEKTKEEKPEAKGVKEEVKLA
Experimental: Novel compounds were tested for their ability to inhibit histone deacetylase, subtype 1 (HDAC1) using an in vitro deacetylation assay. The enzyme source for this assay was an epitope-tagged human HDAC1 complex immuno-purified from stably expressing mammalian cells. The substrate consisted of a commercial product containing an acetylated lysine side chain (BIOMOL Research Laboratories, Inc., Plymouth Meeting, Pa.). Upon deacetylation of the substrate by incubation with the purified HDAC1 complex, a fluorophore is produced that is directly proportional to the level of deacetylation.

[3] = Table 1, compounds of formula II
[4] = Table 2, compounds of formula III
[5] = Table 3, compounds of formula IV

Compound | IC50 [1] [nM] | IC50 [2, 3] [nM] | other results
O=C(CCCCCC(=O)N(CC(=O)Nc1ccccc1)CC(=O)NC1CCCCC1)NO [Compound 11, Heptanedioic acid cyclohexylcarbamoylmethyl-phenylcarbamoylmethyl-amide hydroxyamide] | 705 | 34.5 ± 12.7 | –
COc1ccc2nc(NC(=O)CN(CC(=O)Nc3nc4ccc(OC)cc4s3)C(=O)CCCCCC(=O)NO)sc2c1 [Compound 34, Heptanedioic acid bis-[(6-methoxy-benzothiazol-2-ylcarbamoyl)-methyl]-amide hydroxyamide] | 397 ± 98.2 | 7.6 ± 5.6 | –
Cc1cccc2sc(NC(=O)CN(CC(=O)Nc3nc4c(C)cccc4s3)C(=O)CCCCCC(=O)NO)nc12 [Compound 36, Heptanedioic acid bis-[(4-methyl-benzothiazol-2-ylcarbamoyl)-methyl]-amide hydroxyamide] | 275 ± 19 | 14.5 ± 4.9 | –
O=C(CCCCCCN(CC(=O)Nc1ccccc1)CC(=O)Nc1ccccc1)NO [Compound 41, 7-(Bis-phenylcarbamoylmethyl-amino)-heptanoic acid hydroxyamide] | 332 | – | IC50 [2, 4]: 18.5 ± 3.5 nM
O=C(CCCCCC(=O)N(CC(=O)Nc1cccc2cccnc12)CC(=O)Nc1cccc2cccnc12)NO [Compound 9, Heptanedioic acid bis-(quinolin-8-ylcarbamoylmethyl)-amide hydroxyamide] | 52 ± 24.9 | 26.5 ± 6.3 | –
O=C(CCCCCC(=O)N(CC(=O)Nc1ccccc1)CC(=O)Nc1ccccc1)NO [Compound 6, Heptanedioic acid bis-phenylcarbamoylmethyl-amide hydroxyamide] | 304 ± 83.4 | 20.5 ± 0.7 | –
O=C(CCCCCC(=O)N(CC(=O)NC1CCc2ccccc21)CC(=O)NC1CCc2ccccc21)NO (centres unmarked) [Compound 37, Heptanedioic acid bis-(indan-1-ylcarbamoylmethyl)-amide hydroxyamide] | 388 | 71 ± 1.4 | –
O=C(CCCCCC(=O)N(CC(=O)Nc1ccc(C(F)(F)F)cc1)CC(=O)Nc1ccc(C(F)(F)F)cc1)NO [Compound 25, Heptanedioic acid bis-[(4-trifluoromethyl-phenylcarbamoyl)-methyl]-amide hydroxyamide] | 340 | 89.5 ± 12 | –
O=C(CCCCCC(=O)N(CC(=O)Nc1ccccc1)CC(=O)Nc1cccc2cccnc12)NO [Compound 7, Heptanedioic acid hydroxyamide phenylcarbamoylmethyl-(quinolin-8-ylcarbamoylmethyl)-amide] | 46 ± 10.9 | 25 ± 21.2 | –
O=C(CCCCCC(=O)N(CC(=O)Nc1nc2ccccc2s1)CC(=O)Nc1nc2ccccc2s1)NO [Compound 3, Heptanedioic acid bis-(benzothiazol-2-ylcarbamoylmethyl)-amide hydroxyamide] | 50 ± 27.7 | 9.5 ± 4.9 | –
O=C(CCCCCC(=O)N(CC(=O)Nc1ccc2c(c1)OCO2)CC(=O)Nc1ccc2c(c1)OCO2)NO [Compound 29, Heptanedioic acid bis-(benzo[1,3]dioxol-5-ylcarbamoylmethyl)-amide hydroxyamide] | 586 | 22.5 ± 16.2 | –
O=C(CCCCCC(=O)N(CC(=O)Nc1nc2ccc(F)cc2s1)CC(=O)Nc1nc2ccc(F)cc2s1)NO [Compound 39, Heptanedioic acid bis-[(6-fluoro-benzothiazol-2-ylcarbamoyl)-methyl]-amide hydroxyamide] | 346 | 31.5 ± 12 | –
O=C(CCCCCC(=O)N(CC(=O)Nc1ccccc1Oc1ccccc1)CC(=O)Nc1ccccc1Oc1ccccc1)NO [Compound 26, Heptanedioic acid bis-[(2-phenoxy-phenylcarbamoyl)-methyl]-amide hydroxyamide] | – | 449 ± 40.3 | –
O=C(CCCCCC(=O)N(CC(=O)NCc1ccccc1)CC(=O)NCc1ccccc1)NO [Compound 13, Heptanedioic acid bis-(benzylcarbamoyl-methyl)-amide hydroxyamide] | – | 61.5 ± 6.3 | –
O=C(CCCCCC(=O)N(CCc1c[nH]c2ccccc12)Cc1ccc(Br)cc1)NO [Compound 61] | – | – | IC50 [2, 5]: 162 ± 88.3 nM
O=C(CCC(=O)N1CCN(c2ccccc2)CC1)NO [Compound 66] | – | – | IC50 [2, 5]: 44300 nM
O=C(CCCCCC(=O)N(CC(=O)Nc1ccc(OCc2ccccc2)cc1)CC(=O)Nc1ccc(OCc2ccccc2)cc1)NO [Compound 16, Heptanedioic acid bis-[(4-benzyloxy-phenylcarbamoyl)-methyl]-amide hydroxyamide] | – | 91.5 ± 58.6 | –

Compound | IC50 [1] [nM] | IC50 [2, 3] [nM] | other results
O=C(CCCCCN(CC(=O)NCCc1ccccc1)CC(=O)NCCc1ccccc1)NO [Compound 42, 6-[Bis-(phenethylcarbamoyl-methyl)-amino]-hexanoic acid hydroxyamide] | – | – | IC50 [2, 4]: 55.5 ± 0.7 nM
O=C(CCCCCC(=O)N(CC(=O)NCCc1ccccc1)CC(=O)NCCc1ccccc1)NO [Compound 12, Heptanedioic acid bis-(phenethylcarbamoyl-methyl)-amide hydroxyamide] | – | 58 ± 9.8 | –
O=C(CCCCCCCN(CC(=O)NCc1ccccc1)CC(=O)NCc1ccccc1)NO [Compound 47, 8-[Bis-(benzylcarbamoyl-methyl)-amino]-octanoic acid hydroxyamide] | – | – | IC50 [2, 4]: 181 ± 23.3 nM
O=C(CCCCCCN(CCc1ccccc1)Cc1ccccc1)NO [Compound 81] | 934 | – | IC50 ([2]; Table 4, compounds of formula V): 159 ± 14.1 nM
O=C(CCCCCCC(=O)N(CC(=O)Nc1ccc(OCc2ccccc2)cc1)CC(=O)Nc1ccc(OCc2ccccc2)cc1)NO [Compound 22, Octanedioic acid bis-[(4-benzyloxy-phenylcarbamoyl)-methyl]-amide hydroxyamide] | – | 848 ± 481 | –
O=C(CCCCCC(=O)N(CC(=O)NCCc1ccccc1)CC(=O)Nc1ccccc1)NO [Compound 8, Heptanedioic acid hydroxyamide (phenethylcarbamoyl-methyl)-phenylcarbamoylmethyl-amide] | 852 | 26 ± 5.6 | –
O=C(CCCCCCC(=O)N(CC(=O)NC1CCCCC1)CC(=O)NC1CCCCC1)NO [Compound 21, Octanedioic acid bis-cyclohexylcarbamoylmethyl-amide hydroxyamide] | – | 539 ± 97 | –
6-{Bis-[2-(3,4-dihydro-1H-isoquinolin-2-yl)-2-oxo-ethyl]-amino}-hexanoic acid hydroxyamide [Compound 46] | – | – | IC50 [2, 4]: 153 ± 29.6 nM
O=C(CCCCCC(=O)N(CC(=O)Nc1nc2ccc(Cl)cc2s1)CC(=O)Nc1nc2ccc(Cl)cc2s1)NO [Compound 35, Heptanedioic acid bis-[(6-chloro-benzothiazol-2-ylcarbamoyl)-methyl]-amide hydroxyamide] | 645 | 10.6 ± 7.7 | –
O=C(CCCCCCC(=O)N(CC(=O)NCCc1ccccc1)CC(=O)NCCc1ccccc1)NO [Compound 19, Octanedioic acid bis-(phenethylcarbamoyl-methyl)-amide hydroxyamide] | – | 231 ± 65.5 | –
O=C(CCCCCN(CC(=O)N1CCCCC1)CC(=O)N1CCCCC1)NO [Compound 56, 6-[Bis-(2-oxo-2-piperidin-1-yl-ethyl)-amino]-hexanoic acid hydroxyamide] | – | – | IC50 [2, 4]: 2080 ± 383 nM
O=C(CCCCCN(CC(=O)N1CCN(c2ccccc2)CC1)CC(=O)N1CCN(c2ccccc2)CC1)NO [Compound 45, 6-{Bis-[2-oxo-2-(4-phenyl-piperazin-1-yl)-ethyl]-amino}-hexanoic acid hydroxyamide] | – | – | IC50 [2, 4]: 140 ± 16.2 nM
Cn1c(NC(=O)CN(CC(=O)Nc2nc3ccccc3n2C)C(=O)CCCCCC(=O)NO)nc2ccccc21 [Compound 38, Heptanedioic acid bis-[(1-methyl-1H-benzoimidazol-2-ylcarbamoyl)-methyl]-amide hydroxyamide] | – | 84 ± 8.4 | –
O=C(CCCCCC(=O)N(CC(=O)NCCc1c[nH]c2ccccc12)CC(=O)NCCc1c[nH]c2ccccc12)NO [Compound 33, Heptanedioic acid bis-{[2-(1H-indol-3-yl)-ethylcarbamoyl]-methyl}-amide hydroxyamide] | – | 39.5 ± 37.4 | –
O=C(CCCCCC(=O)N(CC(=O)Nc1ccc(F)cc1)CC(=O)Nc1ccc(F)cc1)NO [Compound 4, Heptanedioic acid bis-[(4-fluoro-phenylcarbamoyl)-methyl]-amide hydroxyamide] | 128 | 16 | –
CC(C)(C)c1ccc(NC(=O)CN(CC(=O)Nc2ccc(C(C)(C)C)cc2)C(=O)CCCCCC(=O)NO)cc1 [Compound 32] | – | 152 ± 48.7 | –
O=C(CCCCCCC(=O)N(CC(=O)Nc1cccc(OCc2ccccc2)c1)CC(=O)Nc1cccc(OCc2ccccc2)c1)NO [Compound 23, Octanedioic acid bis-[(3-benzyloxy-phenylcarbamoyl)-methyl]-amide hydroxyamide] | – | 861 ± 403 | –
